pIC50, pKi: −log10 of the molar value. Counter-ions that a name gives are not always drawn.
Assays:
Human plasma kallikrein = Human plasma kallikrein (Homo sapiens (Human), UniProt P03952); assay: Determination of the Ki for plasma kallikrein; format: biochemical; details: 37° C., fluorogenic substrate H-DPro-Phe-Arg-AFC; read-out: Ki (human Pkal)
Experimental: Determination of the Ki for Plasma Kallikrein
Plasma kallikrein inhibitory activity in vitro was determined using standard published methods (see e.g. Johansen et al., Int. J. Tiss. Reac. 1986, 8, 185; Shori et al., Biochem. Pharmacol., 1992, 43, 1209; Stürzebecher et al., Biol. Chem. Hoppe-Seyler, 1992, 373, 1025). Human plasma kallikrein (Protogen) was incubated at 37° C. with the fluorogenic substrate H-DPro-Phe-Arg-AFC and various concentrations of the test compound. Residual enzyme activity (initial rate of reaction) was determined by measuring the change in […] at 410 nm and the Ki value for the test compound was determined.

Human KLK1 = Human KLK1 (Homo sapiens (Human), UniProt P06870); assay: Determination of the IC50 for KLK1; format: biochemical; details: 37° C., fluorogenic substrate H-DVal-Leu-Arg-AFC
Human KLK1, sequence (P06870 25-262): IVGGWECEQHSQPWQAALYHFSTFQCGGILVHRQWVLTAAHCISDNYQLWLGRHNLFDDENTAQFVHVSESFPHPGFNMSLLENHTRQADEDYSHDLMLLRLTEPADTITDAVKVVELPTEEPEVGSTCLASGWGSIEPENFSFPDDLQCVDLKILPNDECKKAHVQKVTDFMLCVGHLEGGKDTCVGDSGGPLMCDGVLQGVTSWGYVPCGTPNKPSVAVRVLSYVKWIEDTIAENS
Experimental: Determination of the IC50 for KLK1
Human KLK1 (Callbiochem) was incubated at 37° C. with the fluorogenic substrate H-DVal-Leu-Arg-AFC and various concentrations of the test compound. Residual enzyme activity (initial rate of reaction) was determined by measuring the change in optical absorbance at 410 nm and the IC50 value for the test compound was determined.

[1] = Gravimetric vapour sorption (GVS); format: physicochemical
Experimental: Gravimetric Vapour Sorption
Sorption isotherms were obtained using a Hiden Isochema moisture sorption analyser (model IGAsorp), controlled by IGAsorp Systems Software V6.50.48. The sample was maintained at a constant temperature (25° C.) by the instrument controls. The humidity was controlled by mixing streams of dry and wet nitrogen, with a total flow of 250 ml·min-1. The instrument was verified for relative humidity content by measuring three calibrated Rotronic salt solutions (10-50-88%). The weight change of the sample was monitored as a function of humidity by a microbalance (accuracy +/−0.005 mg). A defined amount of sample was placed in a tared mesh stainless steel basket under ambient conditions. A full experimental cycle consisted of three scans (sorption, desorption and sorption) at a constant temperature (25° C.) and 10% RH intervals over a 0-90% range (60 minutes for each humidity level).

[2] = Storage stability at 40° C. and 75% relative humidity for 6 months; format: physicochemical
Text: Further evidence of the suitability of the crystalline forms for pharmaceutical development is provided by the following stability data.

thrombin = thrombin (Homo sapiens (Human), UniProt P00734); assay: Determination of enzyme selectivity: thrombin; format: biochemical; details: substrate at Km concentration
Text: (§1) Determination of Enzyme Selectivity

Factor Xa = Factor Xa (Homo sapiens (Human), UniProt P00742); assay: Determination of enzyme selectivity: Factor Xa; format: biochemical; details: substrate at Km concentration
Factor Xa, sequence (P00742 235-488): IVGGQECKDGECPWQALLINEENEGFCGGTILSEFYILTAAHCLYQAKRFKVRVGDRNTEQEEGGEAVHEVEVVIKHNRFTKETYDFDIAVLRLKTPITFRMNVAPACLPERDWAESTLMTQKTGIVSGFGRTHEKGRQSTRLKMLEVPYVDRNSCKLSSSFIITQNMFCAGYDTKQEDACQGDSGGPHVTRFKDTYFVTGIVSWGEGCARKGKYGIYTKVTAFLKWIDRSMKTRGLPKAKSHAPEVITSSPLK
Factor Xa, sequence (P00742 41-179 partner): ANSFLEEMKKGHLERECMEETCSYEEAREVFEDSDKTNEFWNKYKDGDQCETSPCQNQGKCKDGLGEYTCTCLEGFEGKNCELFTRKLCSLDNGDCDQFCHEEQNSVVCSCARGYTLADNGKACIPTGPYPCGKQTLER
Text: as §1

Factor XIIa = Factor XIIa (Homo sapiens (Human), UniProt P00748); assay: Determination of enzyme selectivity: Factor XIIa; format: biochemical; details: substrate at Km concentration
Factor XIIa, sequence (P00748 373-615): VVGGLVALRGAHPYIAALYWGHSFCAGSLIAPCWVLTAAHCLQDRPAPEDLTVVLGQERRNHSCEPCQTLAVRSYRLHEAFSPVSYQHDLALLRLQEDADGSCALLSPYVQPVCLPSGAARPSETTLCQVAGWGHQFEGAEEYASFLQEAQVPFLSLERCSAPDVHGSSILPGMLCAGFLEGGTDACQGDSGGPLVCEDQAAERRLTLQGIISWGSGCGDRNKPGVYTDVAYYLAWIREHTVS
Text: as §1

[3] = test system: CA-I stimulated RVP in Sprague Dawley rats; assay: Carbonic anhydrase I induced retinal vascular permeability model; format: in vivo; details: rat
Experimental: Carbonic Anhydrase I Induced Retinal Vascular Permeability Model
After 30 mins, a second intravitreal injection (5 μL) of PBS or CA-I (200 ng/eye) was given. After 15 minutes, 10% sodium fluorescein was infused and retinal vascular permeability (RVP) was measured by vitreous fluorophotometry 75 minutes following the initial IVT injections. […] Intravitreal injection of N—[(R)-1-[(S)-1-(4-amino methyl-benzylcarbamoyl)-2-phenyl-ethylcarbamoyl]-2-(4-ethoxy-phenyl)-ethyl]-benzamide hydrochloride reduced RVP (stimulated by CA-I injection) by 53±21%.

[4] = Ocular and systemic pharmacokinetics following a single IVT dose; format: in vivo, rabbit; details: Dutch-belted rabbits
Experimental: A pharmacokinetic study of N—[(R)-1-[(S)-1-(4-aminomethyl-benzylcarbamoyl)-2-phenyl-ethylcarbamoyl]-2-(4-ethoxy-phenyl)-ethyl]-benzamide hydrochloride was performed to assess the ocular and systemic pharmacokinetics following a single IVT dose in pigmented (Dutch-belted) rabbits. […] Serial blood samples were collected in surviving rabbits.

diabetic rats = details: cited from earlier work

Human plasma kallikrein, sequence (P03952 391-638): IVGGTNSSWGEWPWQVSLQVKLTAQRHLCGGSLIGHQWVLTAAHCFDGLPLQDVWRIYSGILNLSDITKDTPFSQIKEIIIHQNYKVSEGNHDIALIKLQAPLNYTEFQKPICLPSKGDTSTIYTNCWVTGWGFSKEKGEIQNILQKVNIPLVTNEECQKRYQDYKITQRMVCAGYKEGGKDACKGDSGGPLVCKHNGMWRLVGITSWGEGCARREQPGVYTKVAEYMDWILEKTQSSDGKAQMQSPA
Human plasma kallikrein, sequence (P03952 20-390 partner): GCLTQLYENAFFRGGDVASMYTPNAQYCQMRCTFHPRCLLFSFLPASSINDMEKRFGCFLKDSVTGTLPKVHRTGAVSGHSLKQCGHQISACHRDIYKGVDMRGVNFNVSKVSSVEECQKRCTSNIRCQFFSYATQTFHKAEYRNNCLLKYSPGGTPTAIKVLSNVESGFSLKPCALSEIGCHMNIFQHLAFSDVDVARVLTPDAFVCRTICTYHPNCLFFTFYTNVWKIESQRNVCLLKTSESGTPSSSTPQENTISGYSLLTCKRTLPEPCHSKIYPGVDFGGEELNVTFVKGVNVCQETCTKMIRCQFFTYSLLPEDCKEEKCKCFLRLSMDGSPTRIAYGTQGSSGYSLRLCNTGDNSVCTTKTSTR

CCOc1ccc(C[C@@H](NC(=O)c2ccccc2)C(=O)N[C@@H](Cc2ccccc2)C(=O)NCc2ccc(CN)cc2)cc1 [Form 1, N—[(R)-1-[(S)-1-(4-aminomethyl-benzylcarbamoyl)-2-phenyl-ethylcarbamoyl]-2-(4-ethoxy-phenyl)-ethyl]-benzamide hydrochloride]
pKi (Human plasma kallikrein): 8.00
pIC50 (Human KLK1): < 5.00
hydration (GVS) ([1]; 25° C., sorption, desorption and sorption, 0-90% RH): reversible
hygroscopicity ([1]; GVS data): absence of significant hygroscopicity
increase in water content (GVS) ([1]; normal conditions, 20% to 80% relative humidity): only a relatively gradual increase
chemical degradation on storage ([2]; 6 months): no significant chemical degradation
purity (HPLC) on storage ([2]; 6 months): 99.8 % area
change to the XRPD diffractogram on storage ([2]; 6 months, double polyethylene bags in polypropylene container): no change
water content (Karl Fischer) on storage ([2]; after one month and thereafter up to 6 months): 2.5%-2.8%

CCOc1ccc(C[C@@H](NC(=O)c2ccccc2)C(=O)N[C@@H](Cc2ccccc2)C(=O)NCc2ccc(CN)cc2)cc1 [N—[(R)-1-[(S)-1-(4-aminomethyl-benzylcarbamoyl)-2-phenyl-ethylcarbamoyl]-2-(4-ethoxy-phenyl)-ethyl]-benzamide hydrochloride]
pIC50 (thrombin): < 4.40
pIC50 (Factor Xa): < 5.00
pIC50 (Factor XIIa): < 5.00
reduction of RVP stimulated by CA-I injection ([3]; intravitreal injection 5 μL of 1 μM, CA-I 200 ng/eye after 30 mins): 53±21%
basal RVP ([3]; intravitreal injection of 1 μM alone (no CA-I), no effect compared to PBS alone, vitreous fluorophotometry at 75 minutes): 3.29±0.21
decline in ocular tissue concentrations ([4]; single IVT 210 ng per eye, vitreous, retina/choroid, aqueous humour, over 7 days): minimal
plasma concentrations following IVT administration ([4]; single bilateral IVT 210 ng per eye, all time points): below 1 ng/mL

N=C(N)c1ccc(CNC(=O)c2cnn(Cc3ccccc3)c2)cc1 [ASP-440]
retinal vascular permeability and retinal blood flow abnormalities (diabetic rats): ameliorated
